Test results as given in US20070274916A1, “Method for Identifying Compounds that Affect Expression of Tryptophan Hydroxylase Isoform 2” (priority 2003, published 2007).
Entries after “also recorded” stand apart in the source; their conditions may differ.

Legend:
Format in all cases: in vivo, mouse
TPH2 mRNA [1] = assay: TPH2 mRNA in raphe slice preparation of male BKTO mice under chronic corticosterone, real-time RT-PCR; details: 14 days, equivalent of 40mg/kg/day
Experimental: (§1) Male BKTO mice (Bantin and Kingman, Hull UK) weighing 25 g at the start of the experiment were briefly anaesthetized using isofluorane. Animals were implanted with 4×5 mg cortic/sterone pellets (Innovative Research of America, catalogue number G-111, 21 day release formulation) or 4× placebo pellets (catalogue number NC-111) this gave an equivalent of 40mg/kg/day of corticosterone. Pellets were implanted using a trochar supplied by the manufacturer which had been modified to allow 4 pellets to be held in one trochar, thus requiring only one incision per animal. The most ideal place to implant the pellet was where there is maximal space between the skin and the muscle such as the lateral side of the neck between the ear and the shoulder-no stitching or wound clipping was required when using this technique. Animals were returned to the home cage and allowed to recover. Fourteen days later, the animals were humanely killed and trunk blood collected into EDTA coated tubes, centrifuged for 10 minutes at 3000 rpm, and plasma removed and frozen on dry ice until ready for analysis. Brains were removed, frozen in isopentane, and stored at −80° C. until ready for analysis. […] Plasma corticosterone was analyzed using a COAT-A-COUNT rat corticosterone radioimmunoassay kit (DPC Products-Order no TKRC1). […]

[2] = Plasma corticosterone in male BKTO mice (radioimmunoassay); details: 4×5 mg pellets, equivalent of 40mg/kg/day, 14 days, FIG. 10, p=0.004
Experimental: as §1

TPH2 mRNA [3] = assay: TPH2 mRNA levels in murine raphe slice preparation of ovariectomized female mice by real-time RT-PCR; details: prednisolone 10 mpk once daily; FIGS. 7 and 8
From the text: Female mice (13 to 16 wks of age) were ovariectomized (C57BL/6s from Charles River; ER Knockout animals from Taconic). Animals were fed a soy-free rodent chow and allowed a minimum of one week to recuperate from surgery and shipping. […] Approximately six hours following the fourth dose, mice were deeply anesthetized with ketamine/xylazine and brains were removed from the skull, placed ventral side up in a mouse brain block on ice, and ice-cold razor blades were inserted into the block at 1 mm intervals. The caudal extent of the hypothalamus was used as an anatomical marker for the placement of the first razor blade, and 4 blades were placed in sequential slots, caudally. The four sections were examined and the two that encompassed the greatest extent of the dorsal raphe were placed in a tube containing […] (Ambion, Austin, Tex.) and placed at 4° C. overnight. Brain slices were removed from […] after 24 hours and stored at −80° C. in fresh tubes.
Two TPH2 primer and probe sets were generated for use in detecting TPH2 by real-time RT-PCR. Murine TPH2 forward primers were mTPH2-514F and mTPH2-1270F, their corresponding sequences are 5′-[…]-3′ (SEQ ID NO:7; corresponding to nucleotides 514 to 535 of the nucleotide sequence encoding TPH2) and 5′-[…]-3′ (SEQ ID NO:8; corresponding to nucleotides 1270 to 1290 of the nucleotide sequence encoding TPH2), respectively. The murine TPH2 reverse primers were mTPH2-585R and mTPH2-1344R, their corresponding sequences are 5′-[…]-3′ (SEQ ID NO:9; corresponding to nucleotides 567 to 585 of the nucleotide sequence encoding TPH2) and 5′-[…]-3′ (SEQ ID NO:10; corresponding to nucleotides 1324 to 1344 of the nucleotide sequence encoding TPH2), respectively. The murine TPH2 probes were mTPH2-565T and mTPH2-1292T, their corresponding sequences are: 5′-[…]-3′ (SEQ ID NO:11; corresponding to nucleotides 539 to 565 of the nucleotide sequence encoding TPH2) and 5′-[…]-3′ (SEQ ID NO:12; corresponding to nucleotides 1292 to 1317 of the nucleotide sequence encoding TPH2), respectively. The probes were labeled at the 5′ end with FAM and the 3′ end with TAMRA.
Isolation of total RNA from mouse raphe slices for real-time PCR analysis using the TAQMAN ABI PRISMS 7700 Detection System, Applied Biosystems, Foster City, Calif. was as follows. Samples were stored in […] at 4° C. overnight followed by removal of […] and storage at −80° C. until isolation of the total RNA (2 slices weigh 25 to 50 mg). Slices were removed from −80° C. and placed in 1.0 mL TRIZOL Reagent in FASTPREP processing tubes. Slices were homogenized with one pass at setting 6 for 30 seconds in FASTPREP 120 homogenizer using LYSING MATRIX D tubes with bead matrix followed by 20 seconds at setting 6 after all samples had been processed. Samples were set at room temperature for 5 minutes to allow for complete dissociation of nucleoprotein complexes followed by centrifugation of the samples at 12,000×g for 5 minutes at 4° C. Homogenates were transferred to 1.5 mL; microcentrifuge tubes and 100 μL BCP (Bromo-3-chloropropane) was added. Samples were vortexed for 15 seconds and set at room temperature for 2 to 3 minutes. Samples were centrifuged at 12,000×g for 15 minutes at 4° C. The aqueous layer was removed and placed in a new RNAse-free sterile 1.5 mL microcentrifuge tube. Five μL of 5 mg/μL glycogen was added to each sample and the samples were vortexed. Five hundred μL of isopropanol was added to each sample. The samples were vortexed for 15 seconds, set at room temperature 10 minutes, followed by centrifugation at 12,000×g for 15 minutes at 4° C. Supernatants were decanted and pellets washed with 500 μL ice cold 75% ethanol.

TPH1 mRNA = TPH1 mRNA levels in murine raphe slice preparation by real-time RT-PCR; details: FIG. 6
From the text: Female mice (13 to 16 wks of age) were ovariectomized (C57BL/6s from Charles River; ER Knockout animals from Taconic). Animals were fed a soy-free rodent chow and allowed a minimum of one week to recuperate from surgery and shipping. […] Approximately six hours following the fourth dose, mice were deeply anesthetized with ketamine/xylazine and brains were removed from the skull, placed ventral side up in a mouse brain block on ice, and ice-cold razor blades were inserted into the block at 1 mm intervals. The caudal extent of the hypothalamus was used as an anatomical marker for the placement of the first razor blade, and 4 blades were placed in sequential slots, caudally. The four sections were examined and the two that encompassed the greatest extent of the dorsal raphe were placed in a tube containing RNALATER (Ambion, Austin, Tex.) and placed at 4° C. overnight. Brain slices were removed from RNALATER after 24 hours and stored at −80° C. in fresh tubes.
Isolation of total RNA from mouse raphe slices for real-time PCR analysis using the TAQMAN ABI PRISMS 7700 Detection System, Applied Biosystems, Foster City, Calif. was as follows. Samples were stored in RNALATER at 4° C. overnight followed by removal of RNALATER and storage at −80° C. until isolation of the total RNA (2 slices weigh 25 to 50 mg). Slices were removed from −80° C. and placed in 1.0 mL TRIZOL Reagent in FASTPREP processing tubes. Slices were homogenized with one pass at setting 6 for 30 seconds in FASTPREP 120 homogenizer using LYSING MATRIX D tubes with bead matrix followed by 20 seconds at setting 6 after all samples had been processed. Samples were set at room temperature for 5 minutes to allow for complete dissociation of nucleoprotein complexes followed by centrifugation of the samples at 12,000×g for 5 minutes at 4° C. Homogenates were transferred to 1.5 mL; microcentrifuge tubes and 100 μL BCP (Bromo-3-chloropropane) was added. Samples were vortexed for 15 seconds and set at room temperature for 2 to 3 minutes. Samples were centrifuged at 12,000×g for 15 minutes at 4° C. The aqueous layer was removed and placed in a new RNAse-free sterile 1.5 mL microcentrifuge tube. Five μL of 5 mg/μL glycogen was added to each sample and the samples were vortexed. Five hundred μL of isopropanol was added to each sample. The samples were vortexed for 15 seconds, set at room temperature 10 minutes, followed by centrifugation at 12,000×g for 15 minutes at 4° C. Supernatants were decanted and pellets washed with 500 μL ice cold 75% ethanol. Samples were centrifuged at 12,000×g for 15 minutes at 4° C., ethanol decanted, and pellets air dried for 10 minutes. Pellets were resuspended in 30 μL prewarmed RNASECURE (60° C.), and heated at 60° C. for 10 min. Samples were stored at −80° C. until DNAse treatment and cDNA synthesis.
DNase treatment and cDNA preparation with wt mouse raphe slice total RNA for TAQMAN analysis. DNase treatment using DNA-free kit (Ambion). Five μg of the total RNA sample was aliquotted to each well of a 96 well plate. An 1× DNase I solution was added to each sample (DNase I buffer, DNase I, H2O). Reactions were mixed and incubated at 37° C. for 30 minutes. Reactions were inactivated by addition of DNase inactivation reagent beads, mixed well at room temperature for 3 minutes and centrifuged at 2,500 RPM for 1 minutes at 4° C. (25 μL reactions were run and inactivated with 1/10 volume of inactivation reagent).
Reverse Transcription. A 10 μL of the DNase I-treated total RNA was added to 40 μL of 1× reverse transcription reaction mix (DEPC treated H2O, RT buffer, MgCl2, dNTP mix, random hexamers, RNase inhibitor, and MULTISCRIBE RT) and incubated at 25° C. for 10 minutes, 48° C. for 30 minutes, and 95° C. for 5 minutes. Reverse transcription was halted by the addition of EDTA. Samples were transferred to a storage plate and stored at −20° C. […]

Row | SMILES | level of TPH2 mRNA in raphe slice preparation (TPH2 mRNA [1]; FIG. 11, p=0.01) | level of TPH2 mRNA in raphe slice preparation (TPH2 mRNA [1]; FIG. 11, p=0.01, listed as corticosterone) | plasma levels after treatment [2] | effect on TPH2 mRNA expression compared to vehicle (TPH2 mRNA [3]) | effect on TPH1 mRNA levels (TPH1 mRNA; 10 mpk s.c., ovariectomized mice) | change of TPH1 mRNA levels in response to treatment (TPH1 mRNA; murine raphe slice preparations, dose not stated)
1 | C[C@]12C[C@H](O)[C@H]3[C@@H](CCC4=CC(=O)CC[C@@]43C)[C@@H]1CC[C@@H]2C(=O)CO [corticosterone] | significantly reduced | significant decrease | significant increase |  |  | 
2 | C[C@]12C=CC(=O)C=C1CC[C@@H]1[C@@H]2[C@@H](O)C[C@@]2(C)[C@H]1CC[C@]2(O)C(=O)CO [prednisolone] |  |  |  | decrease; also recorded: significant reduction | neither 3 mpk of dexamethasone nor 10 mpk prednisolone had any effect; also recorded: no effect | no detectable change
